# Test results as given in publication PMC10732151, “1,4,7-Triazacyclononane-Based Chelators for the Complexation of [^186Re]Re- and [^99mTc]Tc-Tricarbonyl Cores” (Inorganic Chemistry, 2023).
# Experiments:
# Solubility (qualitative) = format: physicochemical
# [1] = Storage stability of chelators and nonradioactive Re complexes; format: physicochemical; settings: for hydrolysis observed on storage: under dry conditions at RT for 3 months
# [2] = Radiocomplex stability in rat serum; format: in vitro ADME; settings: 37 °C
# Method: The radiocomplex stability was also tested in rat serum. HPLC-purified radiocomplexes ([^99mTc]Tc, 50 μL, 7.4–11.1 MBq, 200–300 μCi; [^186Re]Re, 50 μL, 3.0–3.7 MBq, 80–100 μCi) were added to solutions of rat serum (400 μL, Innovative-grade U.S. Origin Sprague–Dawley Rat Serum, Innovative Research, Novi, MI) and ascorbic acid (50 μL, 1 mg/mL in PBS, pH 7). The rat serum mixtures were incubated at 37 °C. Aliquots (100–300 μL) were taken at 1, 4, and 24 h for all radiocomplexes and also at 48 h for the [^186Re]Re complexes. The rat serum aliquots were added to a 4 times volume of acetonitrile to precipitate the rat serum proteins. The solutions were vortexed for 1 min and centrifuged for 10 min. The supernatant was carefully removed, and the pellet was washed with another portion of acetonitrile (100–500 μL). The solution was again vortexed and centrifuged, and the supernatant was removed. The activities in the combined supernatants (containing radiocomplex not bound to proteins) and the pellet (containing radiocomplex bound to proteins) were measured to determine the percentage of nonspecific protein binding for each radiocomplex. Finally, the solvent was removed from the supernatant under a stream of nitrogen, and the stability of the radiocomplexes was determined by radio-HPLC (Methods 1 and 3) after reconstitution in PBS (1 mM, pH 7.4). The formation of colloidal [^99mTc]TcO2 or [^186Re]ReO2 was also monitored at each time point by radio-TLC (Developers 1 and 2).
# [3] = In vitro radiocomplex stability in PBS buffer with no challenger, L-cysteine or L-histidine; format: physicochemical; settings: 37 °C
# Method: Radiocomplex stability testing was carried out in PBS buffer (350–400 μL) with either no challenger or L-cysteine (50 μL, 10 mM) or L-histidine (50 μL, 10 mM) as the challenger. All stability tests also contained ascorbic acid (50 μL, 1 mg/mL in PBS, pH 7) as a radioprotectant. HPLC-purified radiocomplexes ([^99mTc]Tc, 50 μL, 3.7–5.6 MBq, 100–150 μCi; [^186Re]Re, 50 μL, 1.9–3.7 MBq, 50–100 μCi) were added to the stability testing solutions and incubated at 37 °C. Aliquots of each solution were taken at 1, 4, and 24 h, and the stability of the complex was determined by radio-HPLC (Methods 1 and 3) or radio-TLC (Developer 1). An additional stability time point of 48 h was taken for the [^186Re]Re complexes. The formation of colloidal [^99mTc]TcO2 or [^186Re]ReO2 was monitored at each time point by radio-TLC (Developers 1 and 2).
molecule,measurement,setting,value
"O=C(CN1CCNCCNCC1)NCc1ccccc1 [Chelator 3, N-Benzyl-2-(1,4,7-triazonan-1-yl)acetamide]",solubility (solvents in which soluble),Solubility (qualitative),"soluble in water, methanol, and acetonitrile"
"O=C(O)CN1CCN(CC(=O)O)CCN(CC(=O)NCc2ccccc2)CC1 [Chelator 4, TACN-benzylamide Acid]",time stable on storage,"[1]; at RT in an aqueous solution, in words",several months
same,solubility (solvents in which soluble),Solubility (qualitative),"soluble in water, methanol, and acetonitrile"
"COC(=O)CN1CCN(CC(=O)NCc2ccccc2)CCN(CC(=O)OC)CC1 [Chelator 5, TACN-benzylamide Methyl Ester]",time stable on storage,"[1]; stored in a methanol solution, afterwards ester hydrolysis observed",up to 1 week
same,solubility (solvents in which soluble),Solubility (qualitative),soluble in methanol and acetonitrile
"CCOC(=O)CN1CCN(CC(=O)NCc2ccccc2)CCN(CC(=O)OCC)CC1 [Chelator 6, TACN-benzylamide Ethyl Ester]",time stable on storage,[1]; stored in an ethanol solution,up to 1 week
same,solubility (solvents in which soluble),Solubility (qualitative),soluble in ethanol and acetonitrile
"COC(=O)CN1CCN(CC(=O)O)CCN(CC(=O)NCc2ccccc2)CC1 [Chelator 7, TACN-benzylamide Acid Methyl Ester]",solubility (solvents in which soluble),Solubility (qualitative),"soluble in methanol, ethanol, and water"
"CCOC(=O)CN1CCN(CC(=O)O)CCN(CC(=O)NCc2ccccc2)CC1 [Chelator 8, TACN-benzylamide Acid Ethyl Ester]",solubility (solvents in which soluble),Solubility (qualitative),soluble in ethanol and acetonitrile
"CCOC(=O)C[N+]12CC[N+]3(CC(=O)NCc4ccccc4)CC[N+](CC(=O)OCC)(CC1)[Re-2]32.[C-]#[O+].[C-]#[O+].[C-]#[O+] (stereo not shown) [Re-6, fac-[Re(CO)3(TACN-benzylamideethyl ester)]^+]",hydrolysis observed on storage,[1],no hydrolysis observed
COC(=O)CN1CCN(CC(=O)NCc2ccccc2)CCN(CC(=O)OC)CC1.O=[C]=[99Tc+](=[C]=O)=[C]=O [[^99mTc]Tc-5],stability in rat serum,[2]; 24 h,32 ± 10%
same,stability in rat serum,[2]; at 1 h,94 ± 1%
same,"stability in PBS, L-cysteine, and L-histidine",[3]; through 4 h,> 90%
same,"stability in PBS, L-cysteine, and L-histidine",[3]; through 24 h,> 79%
CCOC(=O)CN1CCN(CC(=O)NCc2ccccc2)CCN(CC(=O)OCC)CC1.O=[C]=[99Tc+](=[C]=O)=[C]=O [[^99mTc]Tc-6],stability in rat serum,[2]; 24 h,≤ 2%
same,"stability in PBS, L-cysteine, and L-histidine",[3]; through 4 h,> 90%
same,"stability in PBS, L-cysteine, and L-histidine",[3]; through 24 h,> 79%
COC(=O)CN1CCN(CC(=O)O)CCN(CC(=O)NCc2ccccc2)CC1.O=[C]=[99Tc+](=[C]=O)=[C]=O [[^99mTc]Tc-7],stability in rat serum,[2]; 24 h,> 60%
same,"stability in PBS, L-cysteine, and L-histidine",[3]; through 24 h,100%
CCOC(=O)CN1CCN(CC(=O)O)CCN(CC(=O)NCc2ccccc2)CC1.O=[C]=[99Tc+](=[C]=O)=[C]=O [[^99mTc]Tc-8],stability in rat serum,[2]; 24 h,> 60%
same,"stability in PBS, L-cysteine, and L-histidine",[3]; through 24 h,100%
COC(=O)CN1CCN(CC(=O)NCc2ccccc2)CCN(CC(=O)OC)CC1.O=[C]=[186Re+](=[C]=O)=[C]=O [[^186Re]Re-5],stability in rat serum,[2]; 48 h,4 ± 1%
same,stability in rat serum,[2]; at 1 h,88 ± 1%
same,"stability in PBS, L-cysteine, and L-histidine",[3]; through 4 h,> 95%
same,"stability in PBS, L-cysteine, and L-histidine",[3]; through/after 48 h,> 76%
CCOC(=O)CN1CCN(CC(=O)NCc2ccccc2)CCN(CC(=O)OCC)CC1.O=[C]=[186Re+](=[C]=O)=[C]=O [[^186Re]Re-6],stability in rat serum,[2]; 48 h,≤ 2%
same,"stability in PBS, L-cysteine, and L-histidine",[3]; through 4 h,> 95%
same,"stability in PBS, L-cysteine, and L-histidine",[3]; through/after 48 h,> 76%
COC(=O)CN1CCN(CC(=O)O)CCN(CC(=O)NCc2ccccc2)CC1.O=[C]=[186Re+](=[C]=O)=[C]=O [[^186Re]Re-7],stability in rat serum,[2]; 48 h,38%
same,"stability in PBS, L-cysteine, and L-histidine",[3]; through/after 48 h,> 94%
CCOC(=O)CN1CCN(CC(=O)O)CCN(CC(=O)NCc2ccccc2)CC1.O=[C]=[186Re+](=[C]=O)=[C]=O [[^186Re]Re-8],stability in rat serum,[2]; 48 h,42%
same,"stability in PBS, L-cysteine, and L-histidine",[3]; through/after 48 h,> 94%
fac-[Re(CO)3(TACN-benzylamide acid)]^+ [Re-4],time stable on storage,"[1]; stored under dry conditions, in words",several months
same,solubility (solvents in which soluble),Solubility (qualitative),soluble in water and methanol
fac-[Re(CO)3(TACN-benzylamide methyl ester)]^+ [Re-5],hydrolysis observed on storage,[1],< 5%
fac-[Re(CO)3(TACN-benzylamide)]^+ [Re-3],time stable on storage,"[1]; stored under dry, dark conditions at RT",1 month
same,solubility (solvents in which soluble),Solubility (qualitative),soluble in water
